Results taken from patent US6605742B2, “Cyclo azaphospha hydrocarbons” (priority 2001, dated 2003).

Tests used:
Assay type in all cases: biochemical
MMP-1 = target: T1, MMP-1 (Homo sapiens, UniProt P03956); test: Test for MMP inhibitory effects: cleavage of fluorogenic substrate M-2055 by MMP-1
T1 construct: purchased Chemicon International, CA, USA
T1 sequence (P03956 100-469): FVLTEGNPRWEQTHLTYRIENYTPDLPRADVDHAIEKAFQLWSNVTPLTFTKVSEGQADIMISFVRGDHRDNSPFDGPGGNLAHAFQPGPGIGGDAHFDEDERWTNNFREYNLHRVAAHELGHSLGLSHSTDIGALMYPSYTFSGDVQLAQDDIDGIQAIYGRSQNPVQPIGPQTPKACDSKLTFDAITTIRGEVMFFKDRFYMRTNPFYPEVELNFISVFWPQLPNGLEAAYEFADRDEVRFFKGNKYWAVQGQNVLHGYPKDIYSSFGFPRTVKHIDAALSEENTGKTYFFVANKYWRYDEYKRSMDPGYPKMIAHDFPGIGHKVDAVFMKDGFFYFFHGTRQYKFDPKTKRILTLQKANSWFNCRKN
Protocol: (§1) The assay measures the effect of the tested compounds on the proteolytic activity of metalloproteases by assessing the cleavage of a fluorogenic substrate. In the uncleaved substrate the fluoresensce is quenched intramolecularly, however, cleavage of the substrate relieves the quenching yielding fluorescent peptides [Bickett, Anal. Biochem, 212, 58-64, 1993; Knight, FEBS Lett., 296, 263-266, 1992].
(§2) The compounds were tested for inhibitory effects towards MMP-1 and MMP-9 (Chemicon International, CA, USA) and MMP-2 (Biogenesis Ltd, UK). Substrate for MMP-1 was M-2055 (Dnp-Pro-β-cyclohexyl-Ala-Gly-Cys(Me)-His-Ala-Lys(N-Me-Abz)-NH2), which is a synthetic peptide-like structure, obtained from Bachem AG, Schwitzerland. Substrate for MMP-2 and MMP-9 was fluorescein-conjugated gelatin obtained from Molecular Probes Inc., OR, USA.
(§3) The enzymes were activated with phenyl mercuric acetate, and incubated with the appropriate substrate and different levels of the compound to be tested. The exitation/emission wavelengths were 350/450 and 485/530 for M-2055 and gelatine, respectively.
(§4) The molar concentration of the test compounds resulting in 50% inhibition of the enzymatic activity (IC50) was calculated from the dose-response curve. For convenience, the results are reported as pIC50, i.e. −log(IC50).

MMP-2 = target: T2, MMP-2 (Homo sapiens, UniProt P08253); test: Test for MMP inhibitory effects: cleavage of fluorescein-conjugated gelatin by MMP-2
T2 construct: purchased Biogenesis Ltd, UK
T2 sequence (P08253 110-660): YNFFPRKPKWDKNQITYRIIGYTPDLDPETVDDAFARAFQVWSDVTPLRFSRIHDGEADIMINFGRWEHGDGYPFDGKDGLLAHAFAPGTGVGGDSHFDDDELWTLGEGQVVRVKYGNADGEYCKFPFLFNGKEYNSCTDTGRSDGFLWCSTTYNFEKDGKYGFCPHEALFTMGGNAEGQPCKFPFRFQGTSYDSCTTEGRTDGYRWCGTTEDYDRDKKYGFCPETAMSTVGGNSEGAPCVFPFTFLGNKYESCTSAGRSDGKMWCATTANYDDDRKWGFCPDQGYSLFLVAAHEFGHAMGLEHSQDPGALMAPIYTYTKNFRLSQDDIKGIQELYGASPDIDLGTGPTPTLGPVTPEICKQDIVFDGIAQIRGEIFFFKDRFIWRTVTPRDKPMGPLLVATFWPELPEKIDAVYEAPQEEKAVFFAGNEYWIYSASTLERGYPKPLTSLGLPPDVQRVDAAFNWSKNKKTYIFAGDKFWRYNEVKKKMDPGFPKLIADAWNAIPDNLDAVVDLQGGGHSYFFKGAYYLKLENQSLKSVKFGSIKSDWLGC
Protocol: as §1, §2, §3, §4

MMP-9 = target: T3, MMP-9 (Homo sapiens, UniProt P14780); test: Test for MMP inhibitory effects: cleavage of fluorescein-conjugated gelatin by MMP-9
T3 construct: purchased Chemicon International, CA, USA
Protocol: as §1, §2, §3, §4

[1] = pIC50 = -log(IC50), molar, enzyme activated with phenyl mercuric acetate, substrate fluorescein-conjugated gelatin, excitation/emission 485/530

T3 sequence (P14780 107-707 limits assumed, species assumed): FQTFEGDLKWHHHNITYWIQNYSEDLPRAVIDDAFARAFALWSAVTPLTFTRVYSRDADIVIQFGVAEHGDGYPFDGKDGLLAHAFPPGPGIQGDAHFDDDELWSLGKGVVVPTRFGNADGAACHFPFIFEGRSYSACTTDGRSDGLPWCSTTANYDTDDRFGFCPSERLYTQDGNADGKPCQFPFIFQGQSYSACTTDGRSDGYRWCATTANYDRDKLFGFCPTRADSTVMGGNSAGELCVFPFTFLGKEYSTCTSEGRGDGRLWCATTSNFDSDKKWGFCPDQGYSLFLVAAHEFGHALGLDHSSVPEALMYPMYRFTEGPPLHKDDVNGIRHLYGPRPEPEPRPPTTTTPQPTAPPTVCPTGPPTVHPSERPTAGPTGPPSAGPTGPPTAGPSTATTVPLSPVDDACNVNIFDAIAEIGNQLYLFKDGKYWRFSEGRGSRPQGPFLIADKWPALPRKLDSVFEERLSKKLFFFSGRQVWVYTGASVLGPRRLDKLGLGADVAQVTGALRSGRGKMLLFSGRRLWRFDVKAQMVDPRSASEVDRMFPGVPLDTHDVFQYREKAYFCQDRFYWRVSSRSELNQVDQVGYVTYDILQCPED

Compound	pIC50 MMP-1 (MMP-1; pIC50 = -log(IC50), molar, enzyme activated with phenyl mercuric acetate, substrate M-2055, excitation/emission 350/450)	pIC50 MMP-2 (MMP-2; [1])	pIC50 MMP-9 (MMP-9; [1])	IC50 (MMP-1) [nM]	IC50 (MMP-2) [nM]	IC50 (MMP-9) [nM]
O=C(CN1CCCCCP1(=O)c1ccc(Oc2ccccc2)cc1)NO (racemic) [Example 5, (±)-N-hydroxy-2-oxo-2-(4-phenoxyphenyl)-azaphosphorepane-1-acetamide]	5.2	8.3	8.5			
O=C(CN1CC=CCCP1(=O)c1ccc(Oc2ccccc2)cc1)NO (racemic) [Example 4, (±)-N-hydroxy-2-oxo-2-(4-phenoxyphenyl)-azaphosphorep-5-ene-1-acetamide]				7940	7.94	6.31
O=C(CN1CC=CCP1(=O)c1ccc(Oc2ccccc2)cc1)NO (racemic) [Example 1, (±)-N-hydroxy-2-oxo-2-(4-phenoxyphenyl)-azaphosphorin-4-ene-1-acetamide]				2510	5.01	1
O=C(CN1CC=CCP1(=O)c1ccc(Oc2ccc(Cl)cc2)cc1)NO (racemic) [Example 6, (±)-N-hydroxy-2-(4-(4-chlorophenoxy)-phenyl-2-oxo-azaphosphorin-4-ene-1-acetamide]				5010	3.98	0.794
